Reference: patent US20250099411A1, “Methods of Treatment of Inflammation Related Conditions Using Pluripotent Anti-Inflammatory and Metabolic Modulators” (Institut Pasteur de Montevideo, priority 2018, published 2025)

Key:
[1] = tested on: Nrf2/Keap I-dependent gene expression; test: Nrf2/Keap I-dependent phase two enzyme gene expression (HO-I, GCLM, NQO I qPCR) in Hep G2 cells; format: cell-based; details: Hep G2, five hours, SANA 0.1 mM, Salicylic Acid 0.2 and 5 mM
Procedure: FIGS. 6 and 7 show induction of phase two enzymes Nrf2/Keap I-dependent gene expression by SANA but not by SA Hep G2 cells were treated with SANA (0.1 mM) or Salicylic Acid (0.2 and 5 mM) for five hours. mRNA was extracted from the cells and was measured HO-I, GCLM and NQO I gene expression by qPCR.

inflammasome = test: Inflammasome inhibition (IL-lb ELISA) in THP-1 cells differentiated into macrophages, LPS then ATP; format: cell-based, human; details: for inhibition of the inflammasome (IL-lb), applied with the second signal: together with ATP (5 mM, 45 minutes) after LPS, SANA 0.05-0.25 mM, SA 0.25 mM; for inhibition of the inflammasome (IL-lb), applied with the first signal: together with LPS (250 ng/ml, 3 hs.), then ATP 5 mM 45 minutes, SANA 0.05-0.25, SA 0.25 mM
Procedure: In FIGS. 8 and 9 show the inhibition of inflammasome in THP-1 cells differentiated into macrophages (PMA 200 nM, 48 hs.) by SANA but not by SA when applied together with the first (FIG. 8) or the second (FIG. 9) signal. In FIG. 8 cells were treated with Salicylic acid (0.25 mM) or SANA (0.05; 0.125 and 0.25) together with LPS stimulation. The cells were stimulated with LPS (250 ng/ml, 3 hs.) and then with ATP (5 mM, 45 minutes). Supernatant was collected and IL-lb measured by ELISA Cell viability was assessed by MTT assay. […] In FIG. 9 THP-1 cells were differentiated into macrophages with PMA (200 nM, 48 hs.). Cells were stimulated with LPS (250 ng/ml, 3 hs.) and then with ATP (5 mM, 45 minutes). Together with ATP treatment, cells were then treated with NAT×ME (10 uM), Salicylic acid (0.25 mM) or SANA (0.05; 0.125 and 0.25 mM). Supernatant was collected and IL-lb secretion was measured by ELISA Cell viability was assessed by the MTT assay.

11-lb secretion = test: LPS-induced 11-lb secretion into the peritoneum in vivo
GAPDH = GAPDH (Homo sapiens, UniProt P04406); test: GAPDH activity; format: biochemical
GAPDH, sequence (P04406 whole entry, species assumed): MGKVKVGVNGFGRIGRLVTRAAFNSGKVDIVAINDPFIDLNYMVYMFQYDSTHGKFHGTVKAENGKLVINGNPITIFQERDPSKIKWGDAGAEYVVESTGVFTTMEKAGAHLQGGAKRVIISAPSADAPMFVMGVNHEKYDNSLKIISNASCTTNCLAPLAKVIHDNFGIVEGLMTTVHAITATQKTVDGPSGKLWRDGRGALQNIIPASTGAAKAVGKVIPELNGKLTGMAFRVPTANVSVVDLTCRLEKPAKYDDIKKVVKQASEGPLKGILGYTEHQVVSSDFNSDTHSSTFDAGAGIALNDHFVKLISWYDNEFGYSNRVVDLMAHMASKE

[2] = Thermogenesis / body temperature of mice on HFD; format: in vivo
Source text: (§1) While not wishing to be bound by theory, thermogenesis and weight loss are a result of AMPK activation together with white adipose tissue and mitochondrial uncoupling. […] SANA's beneficial effects also include reducing adverse effects related to obesity. […] FIGS. 22 and 23, compare the body temperatures of mice on normal diets (“ND”), HFD, and HFD with administration of SANA.

[3] = Thermogenesis and weight loss in mice on a normal diet; format: in vivo
Source text: as §1

[4] = Skin allograft rejection, male tail skin grafted onto female mice; format: in vivo, C57BL/6 mice; details: 100 mg/kg oral gavage daily, day -1 to day 15
Procedure: C57BL/6 female mice were grafted with skin from the tails of C57BL/6 male mice. The skin graft is a small'square (1 cm^2 and it was implanted onto the left subscapular region of the female mice. From one day before the transplantation until 15 days after it, the mice were treated daily with SANA (100 mg/kg, by oral gavage; SANA group) or vehicle (Control group). The vehicle used was a solution of Carboxy-Methyl-cellulose 0.5% m/v and Tween 80 0.5% v/v. At the end of the 15th day of administration, allografts were checked every 48/72 hours to assess the condition of the grafted skin. Rejection was diagnosed clinically when the allograft lost more than 50% of its size and/or more than I 0% of allograft was necrotic.
The study followed the protocol described above for FIG. I, but further included a Salicylate group. C57BL/6 female mice were grafted with skin from the tails of C57BL/6 male mice. The skin graft is a small square (1 cm^2 and it was implanted onto the left subscapular region of the female mice. From one day before the transplantation until 15 days after it, the mice were treated daily with Salicylate (100 mg/kg, by oral gavage; Salicylate group), SANA (100 mg/kg, by oral gavage; SANA group) or vehicle (Control group). The vehicle used was a solution of
Carboxy-Methyl-cellulose 0.5% m/v and Tween 80 0.5% v/v. […]

[5] = Body weight of mice fed a high-fat diet; format: in vivo
Source text: as §1

[6] = Glucose tolerance test in HFD obese mice; format: in vivo; details: mice under HFD up to 7 months, 100 mg/kg gavage every day during four weeks
Procedure: Mice under HFD for up to 7 months (mean weight around 40 gr.) were treated with SANA (100 mg/kg; gavage) or phosphate buffer (control) every day during four weeks. The glucose tolerance test were run as per well-known standard procedures.

[7] = Stopped-flow kinetics of the reaction with BME; format: physicochemical; details: 25° C., triplicate, BME 0.54-2.73 mM, absorbance at 260 nm
Procedure: In FIG. 2, it is shown that the reaction between SANA and BME was determined to be a second order rate constant. Stopped-flow kinetic measurements were performed using an Rx 2000 stopped flow analyzer (Applied Photophysics). Mixtures of 150 μL NATx0 (25 μM) and solutions of BME at 0.54 mM, 1.09 mM, 1.64 mM, 2.18 mM, and 2.73 mM concentrations.
The reaction was monitored by following the absorbance at 260 nm and plots were fitted to a simple exponential decay function using Originlab software (version 8.0.). The observed pseudo first order constant at each concentration of BME was extracted from the equation and plotted against the concentration of BME. The second rate constant of the reaction is derived from the slope of the curve and was 182±6 M·^1s·^1. All experiments were carried out at 25° C. by triplicate.

[8] = Magnetic resonance imaging (MRI) of fat content; format: in vivo; details: mice
Source text: as §1

| Compound | induction of phase two enzymes Nrf2/Keap I-dependent gene expression [1] | inhibition of the inflammasome (IL-lb), applied with the second signal (inflammasome) | inhibition of the inflammasome (IL-lb), applied with the first signal (inflammasome) | LPS-induced 11-lb secretion into the peritoneum (11-lb secretion) | GAPDH activity (GAPDH) | body temperature ([2]; HFD with SANA versus ND mice and HFD mice) | thermogenesis ([2]; mouse, in vivo) | thermogenesis [3] | weight loss [3] | skin allograft rejection compared to salicylic acid [4] | survival of grafted skin versus control group [4] | rate of weight gain ([5]; mice fed high-fat diet, 29 weeks) | dose dependence of the effect on obesity ([5]; mouse, in vivo) | insulin resistance (glucose tolerance test) [6] | second rate constant of the reaction with BME [7] [M·^1s·^1] | fat content (MRI) [8] |
| --- | --- | --- | --- | --- | --- | --- | --- | --- | --- | --- | --- | --- | --- | --- | --- | --- |
| O=C(O)c1ccccc1O [SA, salicylic acid, reference compound] | not by SA | cannot inhibit | cannot inhibit | – | – | – | – | – | – | – | – | – | – | – | – | – |
| O=C(O)c1cc(/C=C/[N+](=O)[O-])ccc1O [SANA, 2-hydroxy-5-(2-nitroethenyl)benzoic acid] | induction | potent inhibitor | potent inhibitor | decreases | does not inhibit | higher body temperatures than that of ND mice and HFD mice | inducing thermogenesis | does not induce | does not induce | significant reduction in skin allograft rejection | prolonged survival of grafted skin | reduced the rate of weight gain | dose response effect | reverses insulin resistance | 182±6 | induces loss of fat content |
